Measured values from US20200339544A1 (JOINT STOCK COMPANY "BIOCAD", priority 2017, published 2020).
Like-named read-outs stand apart in the source and are kept apart here.

How the values were obtained:
[1] = General cytotoxicity on HepG2 cells; format: cell-based; conditions: human; general cytotoxicity, HepG2 cells, 72 hours, average of several tests
Method: (§1) The CC50 values were determined in the test for General cytotoxicity on HepG2 cells (rhepatocellular carcinoma, ATCC® HB-8065™) (Table 16). The cells were subcultured in DMEM medium (PanEco, S420p) supplemented with 10% FBS (Gibco, #16140071) for at least 1 passage after thawing, washed with PBS and passaged in 96-well culture plates (3599, Corning) at a concentration of 2*10^4 cells/100 μL per well, and incubated for 16-18 h. The test substances were titrated in DMSO and transferred to DMEM (PanEco, S420p) medium supplemented with 2% FBS, added to the cells and incubated at 37° C. for 72 hours; viability of the cells was then assessed using Alamar Blue dye (ThermoFisher, # DAL1100). CC50 was determined similarly to IC50.
(§2) The ratio between CC50 for HepG2 cell line and IC50 for H1975 cell line is the therapeutic index (TI): […]

HepG2 cells = test: General cytotoxicity on HepG2 cells; format: cell-based; conditions: therapeutic index, CC50 HepG2 / IC50 H1975
Method: as §1, §2

[2] = target: T1, DM EGFR (DoubleMutantEGFR, L828R/T790M) (Homo sapiens, UniProt P00533, L858R/T790M); test: Inhibition of DM EGFR kinase activity (ADP-Glo); format: biochemical; conditions: for IC50: inhibition of kinase activity, EGFR DM (L828R/T790M); for SI, IC50(WT)/IC50(DM): selectivity index, kinase EGFR WT vs EGFR DM
T1 construct: purchased SignalChem
Method: (§3) To assess IC50 values of the compounds disclosed herein, a biochemical assay of inhibition of kinase activity in a non-cellular system and a functional cellular anti-proliferation assay were used.
(§4) To assess inhibition of WT EGFR (Wild-Type EGFR), DM EGFR (DoubleMutantEGFR, L828R/T790M) kinase activity, SignalChem kinase system and ADP-Glo™ Kinase Assay (V9102, Promega) detection kit were used.
(§5) The measurements were carried out in a 25 μL reaction volume using a 96-well plate. […] The solution of 0.5 mg/mL peptide substrate and 50 μM ATP in the same buffer were added; the solution was incubated for 180 minutes at 37° C. To detect the amount of ATP taken up during the kinase reaction, the ADP Glo Detection Kit (V9102, Promega) was used. The luminescence was measured with the Infinite M200Pro plate spectrophotometer (Tecan, Switzerland). IC50 values were calculated using Magellan 7.2 software (Tecan, Switzerland) approximating experimental points by four-parameter logistic model with the optimization by Levenberg-Marquardt (Table 14).

WT EGFR (Wild-Type EGFR) = target: T2, WT EGFR (Wild-Type EGFR) (Homo sapiens, UniProt P00533); test: Inhibition of WT EGFR kinase activity (ADP-Glo); format: biochemical
T2 construct: purchased SignalChem
Method: as §3, §4, §5

[3] = Enzyme stability in human liver S9 fractions; format: in vitro ADME; conditions: 0.5 mg/mL pooled human liver S9 fractions; 10 μM compound; 37° C.; pH 7.4; read-out: Stability in liver S9 fractions, Clint
Method: Determination of enzyme stability.
Measuring of candidate enzyme stability enabled estimation of the stability of the compounds towards the action of liver enzymes.
Enzyme degradation rate was measured by incubating the reaction mixture in a dry block thermostat at 37° C., said reaction mixture comprising 0.5 mg/mL of pooled human liver S9 fractions (XenoTech, USA, cat # H0610), 10 μM compound, 2 mM β-nicotinamide adenine dinucleotide (Carbosynth, UK, cat # NN10871) and 4 mM magnesium chloride in 0.1 M sodium-phosphate buffer, pH=7.4. The reaction was quenched with acetonitrile (100 μL of acetonitrile/100 μL of the reaction mixture). After quenching, the samples were centrifuged at 10000 rpm for 10 minutes. Supernatant fluid was tested by chromatographic technique using Agilent1200 (Agilent, USA). We used gradient elution (1 mL/min flow rate). A graph of the logarithm of substance's peak area as a function of time was made. The dependent factor of the line corresponded to the elimination rate constant K based on which the drug's half-life T½ and intrinsic clearance CLint were calculated:
Based on the data obtained, candidate enzyme stability in human liver S9 fractions was determined (see Table 11).

[4] = system: A549 (lung adenocarcinoma, WT); test: Antiproliferative activity on A549 cells (Alamar Blue); format: cell-based; conditions: Homo sapiens, antiproliferative test
Method: (§6) Antiproliferative activity of EGFR inhibitors (Tables 15 and 16) was measured in cell-based bioassay on continuous epithelial cell cultures: A549 (lung adenocarcinoma, ATCC® CRM-CCL-185™—WT), HCC827 (lung adenocarcinoma, ATCC® CRL-2868™—SM (SingleMutantEGFR, exon19delE746-A750)) and H1975 (lung adenocarcinoma, ATCC® CRL-5908™—DM (DoubleMutantEGFR, L828R/T790M)) using cell viability reagent Alamar Blue (ThermoFisher, # DAL1100). Cells were cultured in 10% FBS-supplemented (Gibco, #16140071) RPMI-1640 (PanEco, S330p) for at least 1 passage after thawing, washed with PBS and passaged in 96-well culture plates (3599, Corning) with RPMI-1640 growth medium supplemented with 2% FBS in an amount of 5*10^3 cells/well for A549, 10*10^3 cells/well for HCC827 and 15*10^3 cells/well for H1975 in 100 μL, and incubated at 37° C. in an incubator (Thermo Forma, USA) under 5% of CO2 for 16-18 h for cell attachment.
(§7) The test compounds were dissolved in DMSO in the selected range of concentrations and transferred to RPMI-1640 medium (PanEco, S330p) supplemented with 2% FBS. After adding 50 μl of the prepared dilutions to the cells, the incubation mixture contained the final concentrations of the test substances and no more than 1% DMSO. The plates were Incubated at 37° C. for 72 h. After incubation, 15 μl of Alamar Blue vital dye (ThermoFisher, # DAL1100) was added to each well. The plates were shaken on an orbital shaker (Biosan, Latvia) and further incubated for 3-5 h in a CO2 incubator (Thermo Forma, USA). Number of living cells was estimated using a plate spectrophotometer Infinite M200Pro, (Tecan, Switzerland) measuring fluorescent signal at the excitation wavelength (λEx) of 540 nm and emission wavelength (λEm) of 590 nm.
IC50 was calculated using Magellan 7.2 software (Tecan, Switzerland) approximating experimental points by four-parameter logistic model with the optimization by Levenberg-Marquardt.
(§8) The ratio between IC50 for cell lines containing wild-type EGFR (A549) and IC50 for cell lines containing target mutation L828R/T790M (H1975) is the selectivity index (SI): […]

[5] = Chemical stability in human blood plasma; format: in vitro ADME; conditions: pooled human blood plasma; 10 μm; 4 hours at 37° C.; substance amount remaining
Method: 2) Determination of chemical stability in human blood plasma.
Determination of stability in human blood plasma was performed using pooled human blood plasma taken from ten healthy donors. The initial candidate solution (10 mM in DMSO) was diluted with pooled blood plasma to a concentration of 10 μm (test solution). The test solution was incubated in a dry block thermostat for 4 hours at 37° C. HPLC with Agilent 1200 liquid chromatography system (Agilent, USA) was employed to determine peak areas of the compounds in test samples, said peak areas corresponding to the initial test time (prior to incubation) and the final test time (after incubation in a dry block thermostat for 4 hours at 37° C.), proteins were preliminarily precipitated with acetonitrile. We used gradient elution (1 mL/min flow rate). Substance amount in % in a sample after thermostatting was determined.
The stability of the compounds was estimated.

[6] = system: H1975 (lung adenocarcinoma, DM, L828R/T790M); test: Antiproliferative activity on H1975 cells (Alamar Blue); format: cell-based; conditions: for IC50: Homo sapiens, NCI-H1975, H1975 cells; for SI IC50(A549)/IC50(DM): selectivity index, A549 vs H1975 cells
Method: as §6, §7
IC50 was calculated using Magellan 7.2 software (Tecan, Switzerland) approximating experimental points by four-parameter logistic model with the optimization by Levenberg-Marquardt. […]
as §8

[7] = average values obtained in several tests, Table 16, read-out: H1975 (DM) IC50
[8] = antiproliferative test, Table 15, read-out: IC50 H1975 (DM)

SMILES	IC50 [2]	SI, IC50(WT)/IC50(DM) [2]	IC50 (WT EGFR (Wild-Type EGFR))	Intrinsic clearance in human liver S9 fractions at 10 µM [3]	IC50 [4]	Stability in blood plasma, % [5]	IC50 [6, 7]	IC50 [6, 8]	CC50 at 72 h [1]	TI, CC50/IC50 (HepG2 cells)	SI IC50(A549)/IC50(DM) [6]
C=CC(=O)Nc1cc(Nc2cc(C(=O)c3ccc(OC)cc3OC)ccn2)c(OC)cc1N(C)CCN(C)C [EGFR_3365_87, N-(5-((4-(2,4-dimethoxybenzoyl)pyridin-2-yl)amino)-2-((2-(dimethylamino)ethyl)(methyl)amino)-4-methoxyphenyl)acrylamide]	2.75 nM	24.50	67.4 nM	11.6 µL/min/mg	8.02 µM	73.3%	57.6 nM	57.6 nM	19.5 µM	338	139
C=CC(=O)Nc1cc(Nc2nccc(C(=O)c3ccc(N4CC[C@H](O)C4)cc3)n2)c(OC)cc1N(C)CCN(C)C.O=CO [EGFR_3365_112, (S)-N-(2-((2-(dimethylamino)ethyl)(methyl)amino)-5-((4-(4-(3-hydroxypyrrolidin-1-yl)benzoyl)pyrimidin-2-yl)amino)-4-methoxyphenyl)acrylamide formate]	2.05 nM	11.48	23.5 nM	6.8 µL/min/mg	37.3 µM	96.9%	15.3 nM	15.3 nM	> 50 µM	>3267	2443
C=CC(=O)Nc1cc(Nc2nccc(C(=O)c3ccc(N4CC[C@@H](O)C4)cc3)n2)c(OC)cc1N(C)CCN(C)C [EGFR_3365_113, (R)-N-(2-((2-(dimethylamino)ethyl)(methyl)amino)-5-((4-(4-(3-hydroxypyrrolidin-1-yl)benzoyl)pyrimidin-2-yl)amino)-4-methoxyphenyl)acrylamide]	2.54 nM	17.09	43.4 nM	10.5 µL/min/mg	13.6 µM	94.0%	4.42 nM	4.42 nM	46.3 µM	10481	3073
C=CC(=O)Nc1cc(Nc2cc(C(=O)c3ccccc3OC)ccn2)c(OC)cc1N(C)CCN(C)C [EGFR_3365_88, N-(2-((2-(dimethylamino)ethyl)(methyl)amino)-4-methoxy-5-((4-(2-methoxybenzoyl)pyridin-2-yl)amino)phenyl)acrylamide]	5.09 nM	15.37	78.2 nM	17 µL/min/mg	14.9 µM	68.2%	62.6 nM	62.6 nM	26.9 µM	429	238

The next lines start with results.

IC50 [2]	SI, IC50(WT)/IC50(DM) [2]	IC50 (WT EGFR (Wild-Type EGFR))	Intrinsic clearance in human liver S9 fractions at 10 µM [3]	IC50 [4]	Stability in blood plasma, % [5]	IC50 [6, 7]	IC50 [6, 8]	SMILES	CC50 at 72 h [1]	TI, CC50/IC50 (HepG2 cells)	SI IC50(A549)/IC50(DM) [6]
2.54 nM	11.55	29.3 nM	21.3 µL/min/mg	8.32 µM	99.2%	12.9 nM	12.9 nM	C=CC(=O)Nc1cc(Nc2nccc(C(=O)c3ccc(OCCC)cc3OC)n2)c(OC)cc1N(C)CCN(C)C [EGFR_3365_101, N-(2-((2-(dimethylamino)ethyl)(methyl)amino)-4-methoxy-5-((4-(2-methoxy-4-propoxybenzoyl)pyrimidin-2-yl)amino)phenyl)acrylamide]	16 µM	1238	645
1.99 nM	63.44	126 nM	19.8 µL/min/mg	12.8 µM	94.6%	19.1 nM	19.1 nM	C=CC(=O)Nc1cc(Nc2nccc(C(=O)c3ccc(N4CC[C@@H](OC)C4)cc3)n2)c(OC)cc1N(C)CCN(C)C [EGFR_3365_115, (R)-N-(2-((2-(dimethylamino)ethyl)(methyl)amino)-4-methoxy-5-((4-(4-(3-methoxypyrrolidin-1-yl)benzoyl)pyrimidin-2-yl)amino)phenyl)acrylamide]	22 µM	1154	670
< 1 nM	>41.48	41.5 nM	19.5 µL/min/mg	9.15 µM	96.3%	104 nM	104 nM	C=CC(=O)Nc1cc(Nc2cc(C(=O)c3ccc(OCCOC)cc3)ccn2)c(OC)cc1N(C)CCN(C)C [EGFR_3365_93, N-(2-((2-(dimethylamino)ethyl)(methyl)amino)-4-methoxy-5-((4-(4-(2-methoxyethoxy)benzoyl)pyridin-2-yl)amino)phenyl) acrylamide]	23.6 µM	227	88
